2 compounds from patent US11807780B2, “Aqueous coatings containing biosurfactants as bio-adjuvants and methods for using same” (RHODIA OPERATIONS, priority 2018, dated 2023) can be followed below.

In the assay the test system is Pseudomonas aeruginosa ATCC 9027. Put plainly: MIC determination by two fold dilutions in 96 well microtiter plates, biocide with and without bio-surfactant. It counts as cell-based. The note with it: for MIC: Pseudomonas aeruginosa; for microbial growth (absorbance at 660 nm): Table 3 / FIG. 5, triplicate wells. Here is the method:
In microbiology, minimum inhibitory concentration (MIC) is defined as the lowest concentration of an antimicrobial that will inhibit the growth of an microorganism after overnight or long incubation. Minimum inhibitory concentrations are important in diagnostic laboratories to confirm resistance of microorganisms to an antimicrobial agent and also to monitor the activity of new antimicrobial agents. A lower MIC is an indication of a better antimicrobial agent, as less is generally needed for acceptable performance. An MIC determination is generally regarded as a basic or standard laboratory measurement of the activity of an antimicrobial agent against an organism.
Biocides tested: • Methylchloroisothiazolinone/Methylisothiazolinone (CMIT/MIT) [also known as KATHON]: • Benzisothiazolinone [BIT] • Methylisothiazolinone [MIT]
Microorganism Used: Pseudomonas aeruginosa ATCC 9027
Biosurfactants tested: • 1. R95D90 (SigmaAldrich) 95% pure rhamnolipid with 90% Di-rhamnolipid dominant • 2. R95M90 (SigmaAldrich) 95% pure rhamnolipid with 90% Mono-rhamnolipid dominant • 3. Natural Saponin
MIC test is a method for determining the Minimum Inhibitory Concentration of a compound required to inhibit or kill the test organisms. MIC50 test is a method for determining the Minimum Inhibitory Concentration of a compound required to inhibit or kill the 50% of the test organisms.
1. The method was based on the MIC (Minimum Inhibitory Concentration) determination by standard two fold dilutions prepared in an appropriate medium and tested in 96 well microtiter plates.
2. A 4× concentration of the active from bio-surfactant stock solution [400 ppm] was prepared to dispense into […].
3. The plates were divided into four sections. Unless otherwise stated, Columns 1-3 received a combination of the bio-surfactant and biocide, Columns 4-6 received biocide alone, and Columns 7-9 received the bio-surfactant alone. Column 10 was left empty, Column 11 was blank medium and Column 12 was medium plus the suspension of the organism.
5. One microtiter plate per test organism and per biocide was used. The dilution scheme is attached as a separate PDF file “Dilution Scheme”.
6. 100 μL of sterile water was aliquoted into to columns 4-6, 11 and 12 with the aid of a 12-channel pipettor add 50 μL in Columns 1-3 and 7-9.
7. Dispensed 50 μL of the 8× stock solution of an appropriate biocide (MIT, BIT or Kathon) in Row A Columns 1-3
8. After mixing with the aid of the multichannel pipettor, 50 μL from the row A wells were transferred to 2nd row [B] wells and after mixing, 50 μL transferred to row C and, the operations were repeated down to row […] and 50 μL from H row (the last row) were discarded.
9. Make 4× stock solution [400 ppm] of each of the bio-surfactants. Dispensed 50 μL of bio-surfactant in 4 different 96 well plates in Columns 7-9 in each of the respective plates.
10. In wells 4-6, 100 μL of individual biocides at 4× concentration were added to the top row A, then serially diluted down to row H while discarding the final 100 μL from row H.
11. Columns 1-3 and 7-9 received 50 μL of 4× bio-surfactant.
12. In a separate tube, prepared bacterial inoculums from 24 hr grown cultures by suspending the cells in 2× Tryptic Soy Broth medium for bacteria.
13. The bacterial inocula were adjusted to 5-6 logs cfu/ml by measuring the turbidity.
14. With an aid of the multichannel pipettor, aliquots of 100 μL organisms were dispensed into each well except for Column 11 in which blank medium was added.
15. Incubated the plates at 35 Celsius degrees for 24 hours for bacterial growth
16. Made visual recordings of positive or negative growth in wells. Measured the absorbance at 660 nm and assessed viability via addition of resazurin dye. Note: for bacterial growth, 10 μL of dye Resazurin stock [250 mg/50 mL] was added to determine the positive and negative growths as determined by color change from blue to pink. […]

Several values for one entry are separate records, joined by “and”; a condition that tells them apart may be missing. Equal values may be shown once. Read-outs that look alike come from different tables or passages of the source. Some results are limits rather than exact numbers.

Take `Cn1sccc1=O` [MIT, 2-methyl-4-isothiazolin-3-one]: the MIC is 12.5 µg/mL (ATCC9027, read-out: MIC w/o BS, biocide alone, Di-Rhamnolipid 95% series); 12.5 µg/mL (ATCC9027, read-out: MIC w/o BS, biocide alone, Mono + Di Rhamnolipid 95% series); 12.5 µg/mL (ATCC9027, read-out: MIC w/o BS, biocide alone, Mono-Rhamnolipid 95% series); 12.5 µg/mL (ATCC9027, read-out: MIC w/o BS, biocide alone, Natural Saponin series); 12.5 µg/mL (ATCC9027, read-out: MIC with BS, with Di-Rhamnolipid 95% (50 ppm)); 6.5 µg/mL (ATCC9027, read-out: MIC with BS, with Mono + Di Rhamnolipid 95% (50 ppm)). The MIC is 6.5 µg/mL (ATCC9027, read-out: MIC with BS, with Mono-Rhamnolipid 95% (50 ppm)) and over 100 µg/mL (ATCC9027, read-out: MIC with BS, with Natural Saponin (Purchased), 50 ppm active).
Regarding `O=c1[nH]sc2ccccc12` [BIT, 1,2-benzisothiazolin-3-one], the MIC came to 25 µg/mL (ATCC9027, biocide alone, Di-Rhamnolipid 95% series, read-out: MIC w/o BS); 25 µg/mL (ATCC9027, biocide alone, Mono + Di Rhamnolipid 95% series, read-out: MIC w/o BS); 25 µg/mL (ATCC9027, biocide alone, Mono-Rhamnolipid 95% series, read-out: MIC w/o BS); 25 µg/mL (ATCC9027, biocide alone, Natural Saponin series, read-out: MIC w/o BS); 12.5 µg/mL (ATCC9027, with Di-Rhamnolipid 95% (50 ppm), read-out: MIC with BS); 12.5 µg/mL (ATCC9027, with Mono + Di Rhamnolipid 95% (50 ppm), read-out: MIC with BS). The MIC was 12.5 µg/mL (ATCC9027, with Mono-Rhamnolipid 95% (50 ppm), read-out: MIC with BS) and over 200 µg/mL (ATCC9027, with Natural Saponin (Purchased), 50 ppm active, read-out: MIC with BS). Moreover, the “microbial growth (absorbance at 660 nm)” value (PPM 1.56) was 0.046 and 0.048 and 0.047; the “microbial growth (absorbance at 660 nm)” value (PPM 3.13) is 0.046 and 0.047 and 0.048; the “microbial growth (absorbance at 660 nm)” value (PPM 6.25) was 0.047 and 0.048; the “microbial growth (absorbance at 660 nm)” value (PPM 50) is 1.278 and 1.284 and 1.285; the “microbial growth (absorbance at 660 nm)” value (PPM 100) is 1.339 and 1.313 and 1.302; the “microbial growth (absorbance at 660 nm)” value (PPM 200) was 1.371 and 1.379.
